Among the data in ChEMBL document CHEMBL6083270, “Synthesis and biological evaluation of 4,7,9-trisubstituted benzoxazepines as antileishmanial agents” (Bioorg Med Chem Lett, 2024) are EC50 and selectivity ratio values, retold here.

For one data set, the system named is Leishmania mexicana. Kind of data set: Antileishmanial activity against Leishmania mexicana intracellular amastigotes. The format is functional, organism-based.
Data set [1] can be described thus: Selectivity index, ratio of EC50 for mouse J774.A1 cells to EC50 for Leishmania mexicana intracellular amastigotes. The format is toxicity, cell-based. The settings on record: read-out: Ratio EC50.
Data set [2] in a line: Cytotoxicity against mouse J774.A1 cells assessed as reduction in cell viability. Format: toxicity, cell-based.

Usually EC50 stands for the midpoint of the concentration-response curve. As for `COc1ccccc1C(=O)N1CCOc2c(cc(-c3ccc(C)s3)cc2OCC2CCCN(C)C2)C1` (configuration not stated), the EC50 in the data set on Leishmania mexicana was determined as 6.1 µM.

For the molecule `Cc1noc(C)c1CC(=O)N1CCOc2c(cc(-c3ccccc3Cl)cc2OCC2CCCN(C)C2)C1` (configuration not stated), the selectivity ratio in data set [1] turned out to be 5.1. Further, the EC50 amounted to 14.7 µM in data set [2] and 2.9 µM with Leishmania mexicana.

As for `Cc1cccc(CN2CCOc3c(cc(-c4ccc(C)s4)cc3OCC3CCCN(C)C3)C2)n1` (configuration not stated), in the data set on Leishmania mexicana, the EC50 was 5.3 µM.

In the data set on Leishmania mexicana, `Cc1ccc(-c2cc3c(c(OCC4CCCN(C)C4)c2)OCCN(Cc2cn(C)nc2C)C3)s1` (configuration not stated) had an EC50 of 5.8 µM.

`CN1CCCC(COc2cc(-c3cccc(Cl)c3)cc3c2OCCN(C(=O)Cc2ccsc2)C3)C1` (configuration not stated) yielded an EC50 with Leishmania mexicana of 11.3 µM.

On to `Cc1ccc(-c2cc3c(c(OCC4CCCN(C)C4)c2)OCCN(C(=O)C2CCC2)C3)s1` (configuration not stated), for which the EC50 in the data set with Leishmania mexicana was 4.8 µM.

In the data set with Leishmania mexicana, `Cc1ccc(-c2cc(O)c3c(c2)CN(C(=O)Cc2c(C)noc2C)CCO3)s1` returned an EC50 of 22.8 µM.

Turning to `Cc1ccc(-c2cc3c(c(OCC4CCCN(C)C4)c2)OCCN(C(=O)c2cccc(Cn4cccn4)c2)C3)s1` (configuration not stated), in the data set on Leishmania mexicana, the midpoint of the response, the EC50, lay at 4.6 µM.

`CN1CCCC(COc2cc(-c3cccc(Cl)c3)cc3c2OCCNC3)C1` (configuration not stated): in the data set on Leishmania mexicana, the midpoint of the response, the EC50, lay at 2.2 µM.

For `CC1=NN(C)CC1c1cc2c(c(OCC3CCCN(C)C3)c1)OCCN(C(=O)Cc1c(C)noc1C)C2` (configuration not stated), the EC50 in data set [2] was over 50 µM; with Leishmania mexicana, 37.5 µM.

For the molecule `Cc1noc(C)c1CC(=O)N1CCOc2c(cc(-c3cccnc3)cc2OCC2CCCN(C)C2)C1` (configuration not stated), the results for the EC50 (in data set [2]; in the data set on Leishmania mexicana) were over 50 µM and 29 µM, respectively.

Turning to `Cc1noc(C)c1CC(=O)N1CCOc2c(cc(CC3CC3)cc2OCC2CCCN(C)C2)C1` (configuration not stated), the EC50 in data set [2] is over 50 µM.

Consider `Cc1noc(C)c1CC(=O)N1CCOc2c(cc(Br)cc2OCC2CCCN(C)C2)C1` (configuration not stated), for which the EC50 in data set [2] is over 50 µM.

As to `Cc1ccc(-c2cc3c(c(OCC4CCCN(C)C4)c2)OCCN(C(=O)Cc2ccc(F)cc2)C3)s1` (configuration not stated), in the data set on Leishmania mexicana, the EC50 was 4.9 µM.

In turn, `Cc1noc(C)c1CC(=O)N1CCOc2c(O)cc(-c3cccc(F)c3)cc2C1` came in with an EC50 with Leishmania mexicana of 29.5 µM.

Regarding `Cc1noc(C)c1CC(=O)N1CCOc2c(cc(-c3cccc(F)c3)cc2OCC2CCCN(C)C2)C1` (configuration not stated), the selectivity ratio in data set [1] stood at 4.4. The concentration giving a half-maximal response (EC50) in data set [2] was 11.5 µM; with Leishmania mexicana, 2.6 µM.

In the data set on Leishmania mexicana, `CCCCCCCCCCCCCCCCOP(=O)([O-])OCC[N+](C)(C)C` [MILTEFOSINE] displayed an EC50 of 3.2 µM.

`Cc1noc(C)c1CC(=O)N1CCOc2c(cc(-c3cccc(Cl)c3)cc2OCC2CCCN(C)C2)C1` (configuration not stated): the selectivity ratio in data set [1] amounted to 3.6. For the same molecule, the results for the EC50 (in data set [2]; in the data set on Leishmania mexicana) were 3.2 µM and 0.9 µM, respectively.

In the data set with Leishmania mexicana, `Cc1ccc(-c2cc3c(c(OCC4CCCN(C)C4)c2)OCCN(C(=O)C2CC2)C3)s1` (configuration not stated) showed an EC50 of 10.2 µM.

For the molecule `CN1CCCC(COc2cc(-c3cccc(Cl)c3)cc3c2OCCN(C(=O)c2cccs2)C3)C1` (configuration not stated), in the data set on Leishmania mexicana, the EC50 turned out to be 4.6 µM.

For the molecule `Cc1ccc(-c2cc3c(c(OCC4CCCN(C)C4)c2)OCCN(C(=O)Cc2c(C)noc2C)C3)s1` (configuration not stated), the selectivity ratio in data set [1] was 2. For the same molecule, the EC50 was 4.7 µM in data set [2] and 2.3 µM in the data set on Leishmania mexicana.

The molecule `COc1ccc(C(=O)N2CCOc3c(cc(-c4ccc(C)s4)cc3OCC3CCCN(C)C3)C2)c(OC)c1` (configuration not stated) displayed an EC50 in the data set on Leishmania mexicana of 3.9 µM.

Regarding `Cc1ccc(-c2cc3c(c(OCC4CCCN(C)C4)c2)OCCNC3)s1` (configuration not stated), in the data set with Leishmania mexicana, the midpoint of the response, the EC50, lay at 3.6 µM.

For the molecule `COc1cccc(C(=O)N2CCOc3c(cc(-c4ccc(C)s4)cc3OCC3CCCN(C)C3)C2)c1` (configuration not stated), a half-maximal response with Leishmania mexicana (EC50) required 4.4 µM.

Consider `Cc1noc(C)c1CC(=O)N1CCOc2c(cc(-c3ccn(C)n3)cc2OCC2CCCN(C)C2)C1` (configuration not stated), for which the values for the EC50 (in data set [2]; with Leishmania mexicana) were over 50 µM and 16.5 µM, respectively.

Turning to `Cc1noc(C)c1CC(=O)N1CCOc2c(cc(-c3ccnn3C)cc2OCC2CCCN(C)C2)C1` (configuration not stated), the EC50 in data set [2] is over 50 µM; in the data set on Leishmania mexicana, 25 µM.

For `Cc1noc(C)c1CC(=O)N1CCOc2c(cc(-c3ccc(Cl)cc3)cc2OCC2CCCN(C)C2)C1` (configuration not stated), the selectivity ratio in data set [1] is 3.4. Besides, the EC50 stood at 5.5 µM in data set [2] and 1.6 µM with Leishmania mexicana.

Regarding `Cc1noc(C)c1CC(=O)N1CCOc2c(O)cc(-c3cccc(Cl)c3)cc2C1`, it took 15.5 µM to reach a half-maximal effect with Leishmania mexicana (EC50).
